Values belong to the compound of their own block, whether it stands above or below them.
Key:
[1] = molecular target: T1, Trace amine-associated receptor 1 (Homo sapiens, UniProt Q96RJ0); assay: Agonist activity at TAAR1 (unknown origin) transfected in HEK293 cells co-transfected with GalphaS-Nluc, Gbeta1/3 and Ggamma1/2/9-mVenus assessed as GalphaS-Gbeta/gamma dissociation by BRET assay; format: functional, cell-based
T1 sequence (Q96RJ0 whole entry): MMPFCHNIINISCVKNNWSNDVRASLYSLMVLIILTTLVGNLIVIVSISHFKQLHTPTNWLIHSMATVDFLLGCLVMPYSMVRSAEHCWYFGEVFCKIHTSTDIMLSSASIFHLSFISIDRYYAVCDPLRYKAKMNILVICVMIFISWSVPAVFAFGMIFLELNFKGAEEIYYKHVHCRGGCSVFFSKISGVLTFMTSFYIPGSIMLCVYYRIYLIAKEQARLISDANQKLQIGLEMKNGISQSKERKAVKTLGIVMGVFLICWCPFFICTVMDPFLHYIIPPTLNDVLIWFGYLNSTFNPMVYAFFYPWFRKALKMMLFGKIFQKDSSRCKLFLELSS

[2] = molecular target: T1, Trace amine-associated receptor 1; assay: Agonist activity at TAAR1 (unknown origin) transfected in HEK293 cells co-transfected with Galphaq-Nluc, Gbeta1/3 and Ggamma1/2/9-mVenus assessed as Galphaq-Gbeta/gamma dissociation by BRET assay; format: functional, cell-based
[3] = Subacute toxicity in Kunming mouse assessed as pathological changes in heart at 50 mg/kg, po administered every two days for 14 days by H and E staining based analysis; format: organism-based; details: in vivo, 336 h, time 14 day
[4] = Cmax in Sprague-Dawley rat at 10 mg/kg, po measured after 8 hrs by LC-MS/MS analysis; format: ADME, organism-based; details: in vivo
[5] = Aqueous solubility of compound at pH 7.0; format: physicochemical; details: aqueous solution
[6] = Half-life in Sprague-Dawley rat at 2 mg/kg, iv measured after 8 hrs by LC-MS/MS analysis; format: ADME, organism-based; details: in vivo
[7] = AUC (0 to infinity) in Sprague-Dawley rat at 2 mg/kg, iv measured after 8 hrs by LC-MS/MS analysis; format: ADME, organism-based; details: in vivo
[8] = Aqueous solubility of compound at pH 7.4; format: physicochemical; details: aqueous solution
[9] = Acute toxicity in Kunming mouse assessed as effect on heart co-efficient at 1000 mg/kg, po administered as single dose and measured after 7 days; format: organism-based; details: in vivo, 168 h, time 7 day
[10] = Half-life in Sprague-Dawley rat at 10 mg/kg, po measured after 8 hrs by LC-MS/MS analysis; format: ADME, organism-based; details: in vivo
[11] = Cmax in Sprague-Dawley rat at 2 mg/kg, iv measured after 8 hrs by LC-MS/MS analysis; format: ADME, organism-based; details: in vivo
[12] = Subacute toxicity in Kunming mouse assessed as effect on kidney coefficient at 50 mg/kg, po administered every two days for 14 days; format: organism-based; details: in vivo, 336 h, time 14 day
[13] = Subacute toxicity in Kunming mouse assessed as pathological changes in spleen at 50 mg/kg, po administered every two days for 14 days by H and E staining based analysis; format: organism-based; details: in vivo, 336 h, time 14 day
[14] = Acute toxicity in Kunming mouse assessed as abnormalities at 1000 mg/kg, po administered as single dose and measured after 7 days; format: organism-based; details: in vivo, 168 h, time 7 day
[15] = Subacute toxicity in Kunming mouse assessed as pathological changes in liver at 50 mg/kg, po administered every two days for 14 days by H and E staining based analysis; format: organism-based; details: in vivo, 336 h, time 14 day
[16] = Subacute toxicity in Kunming mouse assessed as effect on lung coefficient at 50 mg/kg, po administered every two days for 14 days; format: organism-based; details: in vivo, 336 h, time 14 day
[17] = AUC (0 to t) in Sprague-Dawley rat at 10 mg/kg, po measured after 8 hrs by LC-MS/MS analysis; format: ADME, organism-based; details: in vivo
[18] = Tmax in Sprague-Dawley rat at 10 mg/kg, po measured after 8 hrs by LC-MS/MS analysis; format: ADME, organism-based; details: in vivo
[19] = Tmax in Sprague-Dawley rat at 2 mg/kg, iv measured after 8 hrs by LC-MS/MS analysis; format: ADME, organism-based; details: in vivo
Mus musculus [20] = assay: Antipsychotic activity in MK-801 induced male C57BL/6J mouse model assessed as locomotion at 10 mg/kg, po preadministered for 30 mins followed by MK801 administration for 30 mins and measured after 10 mins by open field test (reference value: 8631.5 cm); format: functional; details: time 70 min, 1.167 h
[21] = AUC (0 to t) in Sprague-Dawley rat at 2 mg/kg, iv measured after 8 hrs by LC-MS/MS analysis; format: ADME, organism-based; details: in vivo
[22] = Metabolic stability in human liver microsomes assessed as half-life preincubated for 60 mins followed by NADPH addition and measured after 60 mins by LC-MS/MS analysis; format: ADME, Microsome; details: time 120 min
[23] = AUC (0 to infinity) in Sprague-Dawley rat at 10 mg/kg, po measured after 8 hrs by LC-MS/MS analysis; format: ADME, organism-based; details: in vivo
[24] = Subacute toxicity in Kunming mouse assessed as animal death at 50 mg/kg, po administered every two days for 14 days; format: organism-based; details: in vivo, 336 h, time 14 day
[25] = Aqueous solubility of compound at pH 2.0; format: physicochemical; details: aqueous solution
[26] = Metabolic stability in human liver microsomes assessed as intrinsic clearance preincubated for 60 mins followed by NADPH addition and measured after 60 mins by LC-MS/MS analysis; format: ADME, Microsome; details: time 120 min, read-out: CLH
Mus musculus [27] = assay: Antipsychotic activity in MK-801 induced male C57BL/6J mouse model assessed as reduction in hyperlocomotion preadministered orally for 30 mins followed by MK801 administration for 30 mins and measured after 10 mins by open field test; format: functional, organism-based; details: dose 1-10 mg/kg, route po, time 70.0 min
[28] = Clearance in Sprague-Dawley rat at 2 mg/kg, iv measured after 8 hrs by LC-MS/MS analysis; format: ADME, organism-based; details: in vivo
[29] = Subacute toxicity in Kunming mouse assessed as pathological changes in lung at 50 mg/kg, po administered every two days for 14 days by H and E staining based analysis; format: organism-based; details: in vivo, 336 h, time 14 day
Mus musculus [30] = assay: Antipsychotic activity in MK-801 induced male C57BL/6J mouse model assessed as improvement in recognition deficit performance by measuring discrimination index at 3 mg/kg, po pre-administered with MK-801 as twice daily days for 7 days followed by 1 week of washout period and measured after 1 hrs of compound administration by novel object recognition test (reference value: 0.37); format: functional
[31] = Acute toxicity in Kunming mouse assessed as effect on kidney co-efficient at 1000 mg/kg, po administered as single dose and measured after 7 days; format: organism-based; details: in vivo, 168 h, time 7 day
[32] = Acute toxicity in Kunming mouse assessed as effect on body weight at 1000 mg/kg, po administered as single dose and measured after 7 days; format: organism-based; details: in vivo, 168 h, time 7 day
[33] = Toxicity in male C57BL/6J mouse assessed as catalepsy performance at 30 mg/kg, ip measured after 30 to 60 mins by bar test; format: organism-based; details: in vivo, time 30-60 min
[34] = Subacute toxicity in Kunming mouse assessed as pathological changes in kidney at 50 mg/kg, po administered every two days for 14 days by H and E staining based analysis; format: organism-based; details: in vivo, 336 h, time 14 day
[35] = Acute toxicity in Kunming mouse assessed as effect on liver co-efficient at 1000 mg/kg, po administered as single dose and measured after 7 days; format: organism-based; details: in vivo, 168 h, time 7 day
[36] = Subacute toxicity in Kunming mouse assessed as abnormalities at 50 mg/kg, po administered every two days for 14 days; format: organism-based; details: in vivo, 336 h, time 14 day
[37] = molecular target: T2, Trace amine-associated receptor 1 (Homo sapiens) (UniProt Q96RJ0); assay: Potency index, ratio of SEP-363856 EC50 to test compound EC50 for agonist activity at TAAR1 (unknown origin) transfected in HEK293 cells co-transfected with GalphaS-Nluc, Gbeta1/3 and Ggamma1/2/9-mVenus assessed as GalphaS-Gbeta/gamma dissociation by BRET assay; format: functional, cell-based; details: filed as agonist
T2 sequence (whole entry): T1 sequence (Q96RJ0 whole entry)

[38] = Subacute toxicity in Kunming mouse assessed as effect on heart coefficient at 50 mg/kg, po administered every two days for 14 days; format: organism-based; details: in vivo, 336 h, time 14 day
[39] = Oral bioavailability in Sprague-Dawley rat at 10 mg/kg measured after 8 hrs by LC-MS/MS analysis; format: ADME, organism-based; details: in vivo
[40] = Subacute toxicity in Kunming mouse assessed as effect on liver coefficient at 50 mg/kg, po administered every two days for 14 days; format: organism-based; details: in vivo, 336 h, time 14 day
[41] = Acute toxicity in Kunming mouse assessed as effect on spleen co-efficient at 1000 mg/kg, po administered as single dose and measured after 7 days; format: organism-based; details: in vivo, 168 h, time 7 day
[42] = Subacute toxicity in Kunming mouse assessed as effect on body weight at 50 mg/kg, po administered every two days for 14 days; format: organism-based; details: in vivo, 336 h, time 14 day
[43] = Acute toxicity in Kunming mouse assessed as effect on lung co-efficient at 1000 mg/kg, po administered as single dose and measured after 7 days; format: organism-based; details: in vivo, 168 h, time 7 day
[44] = Subacute toxicity in Kunming mouse assessed as effect on spleen coefficient at 50 mg/kg, po administered every two days for 14 days; format: organism-based; details: in vivo, 336 h, time 14 day
[45] = Acute toxicity in Kunming mouse assessed as animal death at 1000 mg/kg, po administered as single dose and measured after 7 days; format: organism-based; details: in vivo, 168 h, time 7 day
[46] = Toxicity in male C57BL/6J mouse assessed as effect on locomotion at 1 to 10 mg/kg, po administered for 30 mins and measured after 10 mins by open field test; format: organism-based; details: in vivo, 40 min, dose 1-10 mg/kg

SMILES: O=S(=O)(NC[C@@H]1CCCN1)c1ccccc1C(F)(F)F
- EC50 [1]: > 10 µM
- EC50 [2]: > 10 µM

SMILES: O=[N+]([O-])c1cccc(S(=O)(=O)NC[C@@H]2CCCN2)c1
- EC50 [1]: > 10 µM
- EC50 [2]: > 10 µM

SMILES: O=S(=O)(NC[C@@H]1CCCN1)c1cccc(C(F)(F)F)c1
- EC50 [1]: > 10 µM
- EC50 [2]: > 10 µM

SMILES: O=S(=O)(NC[C@@H]1CCCN1)c1cc(F)cc(F)c1
- EC50 [1]: > 10 µM
- EC50 [2]: > 10 µM

SMILES: COc1cccc(S(=O)(=O)NC[C@@H]2CCCN2)c1.Cl
- Activity [3]: Non-toxic
- Cmax [4]: 63.7 ng/mL
- solubility [5]: 65.7 mg/mL
- half-life [6]: 21 min
- EC50 [1]: 0.0061 µM
- AUC(0-inf) [7]: 356 ng·h/mL
- solubility [8]: 43.3 mg/mL
- Activity [9]: Non-toxic
- half-life [10]: 91.8 min
- Cmax [11]: 746 ng/mL
- Activity [12]: Non-toxic
- Activity [13]: Non-toxic
- Activity [14]: Non-toxic
- Activity [15]: Non-toxic
- Activity [16]: Non-toxic
- AUC(0-t) at 8 h [17]: 229 ng·h/mL
- Tmax [18]: 25.2 min
- Tmax [19]: 1.8 min
- Activity (Mus musculus [20]): 3917.8 cm
- AUC(0-t) at 8 h [21]: 355 ng·h/mL
- half-life [22]: 126 min
- AUC(0-inf) [23]: 240 ng·h/mL
- Activity [24]: Non-toxic
- EC50 [2]: 0.0148 µM
- solubility [25]: 96.2 mg/mL
- microsomal CLint [26]: 11 µL/min/mg
- Activity (Mus musculus [27]): Dose-dependent-effect
- clearance [28]: 94.1 mL/min/kg
- Activity [29]: Non-toxic
- Activity_index (Mus musculus [30]): 0.48
- Activity [31]: Non-toxic
- Activity [32]: Non-toxic
- Activity [33]: Non-toxic
- Activity [34]: Non-toxic
- Activity [35]: Non-toxic
- Activity [36]: Non-toxic
- Ratio EC50 [37]: 3.5
- Activity [38]: Non-toxic
- bioavailability [39]: 13.4%
- Activity [40]: Non-toxic
- Activity [41]: Non-toxic
- Activity [42]: Non-toxic
- Activity [43]: Non-toxic
- Activity [44]: Non-toxic
- Activity [45]: Non-toxic
- Activity [46]: Non-toxic

SMILES: Cc1ccc(S(=O)(=O)NC[C@@H]2CCCN2)cc1
- EC50 [1]: > 10 µM
- EC50 [2]: > 10 µM

Continued by falling EC50 [2], values first:

- EC50 [2]: 0.0912 µM
SMILES: N[C@H]1CN(c2ncccc2C(F)(F)F)C[C@@H]1C1CC1

- EC50 [2]: 0.055 µM
SMILES: O=S(=O)(NC[C@@H]1CCCN1)c1ccc2ccccc2c1

- EC50 [2]: 0.0078 µM
SMILES: COc1ccccc1S(=O)(=O)NC[C@@H]1CCCN1

— ChEMBL document CHEMBL6177995, “In Silico Discovery of Novel Potent Trace Amine-Associated Receptor TAAR1 Agonists as Promising Drug Candidates for the Treatment of Schizophrenia” (J Med Chem, 2025)
